Assays:
[1] = Cytotoxicity against human A549/PTX cells assessed as inhibition of cell growth incubated for 72 hrs by MTT assay; type: functional, cell-based
A549 = assay: Cytotoxicity against human A549 cells assessed as inhibition of cell growth incubated for 72 hrs by MTT assay; type: functional, cell-based; conditions: A549, 72 h

CC(=O)O[C@]12C[C@@H](C)[C@H](OC(=O)c3ccccc3)[C@@H]1/C=C(\C)[C@H](OC(=O)c1ccccc1)CC(=O)C(C)(C)/C=C/[C@@H](C)C2=O
IC50 [1]: 7.2 µM | IC50 (A549): > 10 µM

CC(=O)O[C@@H]1[C@H](C)/C=C/C(C)(C)C(=O)C[C@@H](OC(=O)c2cccnc2)/C(C)=C/[C@H]2[C@@H](OC(=O)c3ccccc3)[C@H](C)C[C@]12OC(C)=O
IC50 [1]: 9.5 µM | IC50 (A549): > 10 µM

CC(=O)O[C@@H]1[C@H](C)/C=C/C(C)(C)C(=O)C[C@@H](OC(=O)c2ccccc2)/C(C)=C/[C@H]2[C@@H](OC(=O)c3ccccc3)[C@H](C)C[C@]12OC(C)=O [EUPHOSCOPIN C]
IC50 [1]: 6.9 µM | IC50 (A549): > 10 µM

CC(=O)O[C@H]1C(=O)[C@@]2(C)[C@H]([C@H](OC(=O)c3ccccc3)[C@]3(O)C[C@H](OC(=O)[C@H](O)[C@@H](NC(=O)c4ccccc4)c4ccccc4)C(C)=C1C3(C)C)[C@]1(OC(C)=O)CO[C@@H]1C[C@@H]2O [PACLITAXEL]
IC50 (A549): 0.0675 µM
